Measured values from patent publication US8884023B2, “Pyrano [3,2-D][1,3]thiazole as glycosidase inhibitors” (priority 2011, dated 2014).
Read-outs that look alike come from different tables or passages of the source.

Columns and labels:
[1] = molecular target: T1, His-Tagged hOGA (human O-GlcNAcase) (Homo sapiens, UniProt O60502); assay: biochemical
T1 sequence (O60502 1-916): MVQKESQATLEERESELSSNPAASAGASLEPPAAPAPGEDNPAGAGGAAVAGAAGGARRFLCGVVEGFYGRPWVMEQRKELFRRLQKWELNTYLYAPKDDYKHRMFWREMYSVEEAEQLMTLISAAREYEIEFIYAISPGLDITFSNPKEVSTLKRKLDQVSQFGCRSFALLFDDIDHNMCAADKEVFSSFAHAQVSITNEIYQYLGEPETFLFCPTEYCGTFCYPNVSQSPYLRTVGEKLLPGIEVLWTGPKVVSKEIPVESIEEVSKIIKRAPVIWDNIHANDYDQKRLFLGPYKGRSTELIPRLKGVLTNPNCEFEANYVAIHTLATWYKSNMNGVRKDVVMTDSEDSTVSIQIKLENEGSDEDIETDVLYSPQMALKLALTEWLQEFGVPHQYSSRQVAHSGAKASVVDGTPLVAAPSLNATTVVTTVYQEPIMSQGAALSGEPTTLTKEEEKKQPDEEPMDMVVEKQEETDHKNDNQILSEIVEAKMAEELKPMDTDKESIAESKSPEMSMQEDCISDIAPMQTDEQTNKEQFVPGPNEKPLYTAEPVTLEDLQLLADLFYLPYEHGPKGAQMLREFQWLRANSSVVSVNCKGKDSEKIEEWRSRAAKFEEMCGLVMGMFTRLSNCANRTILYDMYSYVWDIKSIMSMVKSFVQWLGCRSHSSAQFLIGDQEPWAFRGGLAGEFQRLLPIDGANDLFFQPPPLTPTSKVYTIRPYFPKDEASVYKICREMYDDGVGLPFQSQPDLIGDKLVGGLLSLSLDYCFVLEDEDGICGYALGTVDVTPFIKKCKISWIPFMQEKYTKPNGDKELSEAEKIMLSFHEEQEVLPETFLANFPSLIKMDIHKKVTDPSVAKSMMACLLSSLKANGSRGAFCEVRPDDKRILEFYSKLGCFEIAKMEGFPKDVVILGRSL

[2] = molecular target: T2, O-GlcNAcase (UniProt Q8VIJ5); format: cell-based; settings: cells expressing endogenous O-GlcNAcase (such as rat B35, rat PC-12, human SH-SY5Y), approximately 16 hours treatment; read-out: OGA cellular inhibition (EC50)
T2 sequence (Q8VIJ5 1-916): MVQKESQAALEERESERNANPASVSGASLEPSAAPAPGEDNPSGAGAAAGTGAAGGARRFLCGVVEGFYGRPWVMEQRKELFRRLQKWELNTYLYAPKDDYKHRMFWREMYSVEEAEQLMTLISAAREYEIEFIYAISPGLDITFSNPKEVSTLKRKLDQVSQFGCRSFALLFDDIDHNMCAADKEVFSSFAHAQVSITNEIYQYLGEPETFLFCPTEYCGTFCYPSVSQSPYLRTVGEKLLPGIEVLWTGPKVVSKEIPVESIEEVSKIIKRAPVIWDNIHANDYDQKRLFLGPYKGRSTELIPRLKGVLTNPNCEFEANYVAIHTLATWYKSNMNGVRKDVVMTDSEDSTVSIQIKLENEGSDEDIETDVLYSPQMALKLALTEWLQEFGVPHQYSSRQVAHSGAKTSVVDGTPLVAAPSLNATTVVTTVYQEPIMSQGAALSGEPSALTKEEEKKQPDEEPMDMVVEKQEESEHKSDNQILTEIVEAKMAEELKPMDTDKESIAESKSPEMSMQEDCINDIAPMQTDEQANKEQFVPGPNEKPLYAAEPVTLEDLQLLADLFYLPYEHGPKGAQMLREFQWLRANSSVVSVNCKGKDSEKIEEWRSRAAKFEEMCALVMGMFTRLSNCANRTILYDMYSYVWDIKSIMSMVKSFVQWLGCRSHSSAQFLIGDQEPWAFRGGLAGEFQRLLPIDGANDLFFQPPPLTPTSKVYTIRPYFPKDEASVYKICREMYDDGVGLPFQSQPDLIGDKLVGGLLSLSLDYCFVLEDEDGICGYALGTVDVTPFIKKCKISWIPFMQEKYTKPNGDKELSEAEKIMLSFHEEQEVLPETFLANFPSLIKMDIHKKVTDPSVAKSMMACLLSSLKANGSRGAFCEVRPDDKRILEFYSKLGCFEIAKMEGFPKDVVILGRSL
Text: Assay for the Determination of Cellular Activity for Compounds that Inhibit O-GlcNAcase Activity
Inhibition of O-GlcNAcase, which removes O-GlcNAc from cellular proteins, results in an increase in the level of O-GlcNAcylated proteins in cells. An increase in the O-GlcNAcylation of cellular proteins can be measured by an antibody, such as CTD110.6, that binds O-GlcNAcylated proteins. The amount of O-GlcNAcylated protein can be determined by the enzyme linked immunoabsorbant assay (ELISA) technique.
Cell lines, such as rat B35, rat PC-12 and human SH-SY5Y cells, expressing endogenous levels of O-GlcNAcase, could be utilized. Cells were plated in 96-well plates at a density of approximately 10,000 cells/well. Compounds to be tested were dissolved in DMSO as 10 mM stock solution, and then diluted first with DMSO and then culture media using the Bravo workstation. Cells were treated with diluted compounds for approximately 16 hours. […] To prepare a cell lysate, the media from compound treated cells were removed, and the cells were washed once with Dulbecco's phosphate buffered saline (DPBS) and then lysed for 30 minutes in 100 μl/well of ice cold RIPA buffer containing a protease inhibitor cocktail.
The ELISA portion of the assay was performed in EIA/RIA plates that were coated overnight at 4 C with 80 μl/well of cell lysate. The following day the wells were washed 6 times with 200 μl of wash buffer (0.05% Tween20 in DPBS). The wells were blocked with 200 μl blocking buffer (1% BSA, 0.05% Tween20 in DPBS) for 1 h at room temperature. Each well was then washed 6 times with 200 μl of wash buffer. The anti-O-GlcNAc antibody CTD110.6 (Covance, Princeton, N.J.) was added at 100 μl/well at a concentration of 10 μg/ml. The plates were incubated for 1 h at room temperature. The wells were then washed 6 times with 200 μl/well of wash buffer. To detect the amount of CTD110.6 bound to the cell lysate, alkaline phosphatase conjugated goat anti-mouse IgM (diluted 1:500 in blocking buffer) was added at 100 μl/well and incubated for 45 min at room temperature. Each well was then washed 6 times with 200 μl/well of wash buffer. PNPP tablets dissolved in diethanolamine substrate buffer and 100 μl/well were added as detection reagent.
The amount of O-GlcNAcylated protein, as detected by the ELISA assay, was plotted for each concentration of test compound using standard curve fitting algorithms for sigmoidal dose response curves. The values for a four parameter logistic curve fit of the data were determined, with the inflection point of the curve being the potency value for the test compound.

[3] = read-out: OGA enzyme inhibition (IC50)

Row | Structure (SMILES) | IC50 [1, 3] | EC50 [2] | IC50 [1]
1 | CCNC1=N[C@@H]2[C@@H](O)[C@H](O)[C@@H](CN(C)C)O[C@@H]2S1 [compound no. 51, (3aR,5R,6S,7R,7aR)-5-[(dimethylamino)methyl]-2-(ethylamino)-5,6,7,7a-tetrahydro-3aH-pyrano[3,2-d][1,3]thiazole-6,7-diol] | 100 to 500 nM | 100 to 500 nM | –
2 | CCNC1=N[C@@H]2[C@@H](O)[C@H](O)[C@@H](Cn3cc(Cn4nnc5ccccc54)nn3)O[C@@H]2S1 [compound no. 57, (3aR,5R,6S,7R,7aR)-5-{[4-(1H-1,2,3-benzotriazol-1-ylmethyl)-1H-1,2,3-triazol-1-yl]methyl}-2-(ethylamino)-5,6,7,7a-tetrahydro-3aH-pyrano[3,2-d][1,3]thiazole-6,7-diol] | – | > 1000 nM | < 100 nM
3 | CCNC1=N[C@@H]2[C@@H](O)[C@H](O)[C@@H](Cn3cc(COc4ccccc4)nn3)O[C@@H]2S1 [compound no. 58, (3aR,5R,6S,7R,7aR)-2-(ethylamino)-5-{[4-(phenoxymethyl)-1H-1,2,3-triazol-1-yl]methyl}-5,6,7,7a-tetrahydro-3aH-pyrano[3,2-d][1,3]thiazole-6,7-diol] | < 100 nM | 500 to 1000 nM | –
4 | CCNC1=N[C@@H]2[C@@H](O)[C@H](O)[C@@H](Cn3cc(C(C)(O)c4ccccc4)nn3)O[C@@H]2S1 (some centres unmarked) [compound no. 67, 2-Ethylamino-5-[4-(1-hydroxy-1-phenyl-ethyl)-[1,2,3]triazol-1-ylmethyl]-5,6,7,7a-tetrahydro-3aH-pyrano[3,2-d]thiazole-6,7-diol] | – | < 100 nM | < 100 nM
